Assay results from the supplement of paper PMC10307832.

What was measured:
Assay in all cases: relative viability (nuclei count vs DMSO), 5 days (fraction); higher = more cells survive
[1] = compound: CC(C)C[C@H](NC(=O)[C@H](CCc1ccccc1)NC(=O)CN1CCOCC1)C(=O)N[C@@H](Cc1ccccc1)C(=O)N[C@@H](CC(C)C)C(=O)[C@@]1(C)CO1 [Carfilzomib] + COc1cc2c(Oc3ccc(NC(=O)C4(C(=O)Nc5ccc(F)cc5)CC4)cc3F)ccnc2cc1OCCCN1CCOCC1 [Foretinib] (partner 0.25 µM)
Outline: (§1)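 After 5 days of treatment, lung cancer cells in 1536-well plates were fixed and stained in a single step (final 0.05% Triton X-100, 1% formaldehyde, 1 ug/ml Hoechst) and their nuclei counted on 4× images. Treatment had been applied by pin tool the day after seeding as one drug alone or as a fixed anchor-drug dose with five library-drug doses (not always all listed) in √10 steps. Relative viability is the nuclei count of treated wells divided by that of vehicle wells, and values are medians of duplicate plates.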

[2] = compound: CC(C)C[C@H](NC(=O)[C@H](CCc1ccccc1)NC(=O)CN1CCOCC1)C(=O)N[C@@H](Cc1ccccc1)C(=O)N[C@@H](CC(C)C)C(=O)[C@@]1(C)CO1 [Carfilzomib] + CS(=O)(=O)N1CCN(Cc2cc3nc(-c4cccc5[nH]ncc45)nc(N4CCOCC4)c3s2)CC1 [Pictilisib] (partner 1 µM)
Outline: as §1

[3] = compound: C[C@@H](Oc1cc(-c2cnn(C3CCNCC3)c2)cnc1N)c1c(Cl)ccc(F)c1Cl [Crizotinib] + CC1(C)CCC(c2ccc(Cl)cc2)=C(CN2CCN(c3ccc(C(=O)NS(=O)(=O)c4ccc(N[C@H](CCN5CCOCC5)CSc5ccccc5)c(S(=O)(=O)C(F)(F)F)c4)cc3)CC2)C1 [Navitoclax] (partner 0.5 µM)
Outline: as §1

[4] = compound: C[C@@H](Oc1cc(-c2cnn(C3CCNCC3)c2)cnc1N)c1c(Cl)ccc(F)c1Cl [Crizotinib] + COc1cc2c(Oc3ccc(NC(=O)C4(C(=O)Nc5ccc(F)cc5)CC4)cc3F)ccnc2cc1OCCCN1CCOCC1 [Foretinib] (partner 0.25 µM)
Outline: as §1

| Cell Line | relative viability ([1]; first compound 0.001 µM) | relative viability ([1]; first compound 0.003162 µM) | relative viability ([1]; first compound 0.01 µM) | relative viability ([1]; first compound 0.03162 µM) | relative viability ([1]; first compound 0.1 µM) | relative viability ([2]; first compound 0.001 µM) | relative viability ([2]; first compound 0.003162 µM) | relative viability ([2]; first compound 0.01 µM) | relative viability ([2]; first compound 0.03162 µM) | relative viability ([2]; first compound 0.1 µM) | relative viability ([3]; first compound 0.01 µM) | relative viability ([3]; first compound 0.3162 µM) | relative viability ([3]; first compound 1 µM) | relative viability ([4]; first compound 0.01 µM) | relative viability ([4]; first compound 0.03162 µM) | relative viability ([4]; first compound 0.1 µM) | relative viability ([4]; first compound 0.3162 µM) | relative viability ([4]; first compound 1 µM) | relative viability ([3]; first compound 0.03162 µM) | relative viability ([3]; first compound 0.1 µM) |
| --- | --- | --- | --- | --- | --- | --- | --- | --- | --- | --- | --- | --- | --- | --- | --- | --- | --- | --- | --- | --- |
| NCI-H596 | 0.813 | 0.84 | 0.812 | 0.195 | 0.148 | 0.365 | 0.425 | 0.398 | 0.259 | 0.18 | 0.845 | 1 | 0.964 | 0.854 | 0.898 | 0.85 | 1.11 | 0.835 | – | – |
| NCI-H647 | 1.19 | 1.33 | 1.26 | 0.0352 | 0.0362 | – | 0.562 | 0.397 | 0.0769 | 0.036 | 1.01 | – | 1.06 | 1.2 | 1.24 | 1.19 | 1.18 | 1.22 | 1.21 | 1.03 |
| NCI-H727 | 0.758 | 0.891 | 0.996 | 0.617 | 0.397 | 0.32 | 0.43 | 0.418 | 0.215 | 0.148 | 0.394 | 0.436 | 0.393 | – | 1.24 | 0.957 | – | 1.22 | 0.459 | 0.505 |
| NCI-H838 | 1.06 | 1.12 | 1.15 | 0.974 | 0.131 | 0.487 | 0.525 | 0.449 | 0.615 | 0.144 | 1.14 | 1.19 | 1.13 | 0.961 | 1.04 | 1.01 | 0.994 | 1.02 | 1.14 | 1.16 |
| NCI-H1299 | 1.03 | 1.02 | 1.14 | 0.597 | 0.117 | 0.735 | 0.838 | 0.6 | 0.0711 | 0.0334 | 1.04 | 1.07 | 1.01 | 1.03 | 1.07 | 1.04 | 1.08 | 1.06 | 1.02 | 1.01 |
| NCI-H1355 | 0.995 | 1.07 | 1.03 | 0.714 | 0.198 | 0.404 | 0.6 | 0.396 | 0.219 | 0.145 | 0.901 | 0.923 | 0.931 | 0.935 | 0.81 | 0.922 | 0.916 | 0.959 | 1.02 | 0.929 |
| NCI-H1395 | 0.981 | 1.07 | 0.954 | 0.527 | 0.329 | 0.564 | 0.644 | 0.593 | 0.479 | 0.525 | 1.12 | 1.21 | – | 0.827 | 0.937 | – | 0.941 | 0.959 | 0.956 | 1.09 |
